Experimental data: ChEMBL document CHEMBL1139863, “Synthesis and in vitro antiprotozoal activities of dicationic 3,5-diphenylisoxazoles” (J Med Chem, 2007)

Key:
L6 = assay: Cytotoxicity against rat L6 cells; assay type: cell-based
Plasmodium falciparum = assay: Antiplasmodial activity against chloroquine-resistant Plasmodium falciparum K1; assay type: functional, organism-based
[1] = test system: Trypanosoma brucei rhodesiense; assay: Antitrypanosomal activity against Trypanosoma brucei rhodesiense; assay type: functional, organism-based

SMILES: N=C(N)c1ccc(-c2cc(-c3ccccc3)on2)cc1
- IC50 (L6): 18500 nM
- IC50 (Plasmodium falciparum): > 3300 nM
- IC50 [1]: 1120 nM

SMILES: N=C(N)c1ccc(-c2cc(-c3ccccc3)no2)cc1
- IC50 (L6): 19100 nM
- IC50 (Plasmodium falciparum): > 3300 nM
- IC50 [1]: 1720 nM

SMILES: c1cc(C2=NCCN2)cc(-c2cc(-c3ccc(C4=NCCN4)cc3)no2)c1
- IC50 (L6): 30200 nM
- IC50 (Plasmodium falciparum): 77 nM
- IC50 [1]: 974 nM

SMILES: COc1cc(C(=N)N)ccc1-c1cc(-c2ccc(C(=N)N)cc2OC)on1
- IC50 (L6): 84800 nM
- IC50 (Plasmodium falciparum): 6.1 nM
- IC50 [1]: 13 nM

SMILES: COc1cc(C(=N)N)ccc1-c1cc(-c2ccc(C(=N)N)cc2)on1
- IC50 (L6): 92600 nM
- IC50 (Plasmodium falciparum): 66.3 nM
- IC50 [1]: 16.4 nM

SMILES: N=C(N)c1cccc(-c2cc(-c3ccc(C(=N)N)cc3Cl)on2)c1
- IC50 (L6): 82700 nM
- IC50 (Plasmodium falciparum): 18.7 nM
- IC50 [1]: 6.3 nM

SMILES: COc1cc(C(=N)N)ccc1-c1cc(-c2ccc(C(=N)N)cc2)no1
- IC50 (L6): 122000 nM
- IC50 (Plasmodium falciparum): 6 nM
- IC50 [1]: 10.6 nM

SMILES: N=C(N)c1ccc(-c2cc(-c3ccc(C(=N)N)cc3[N+](=O)[O-])no2)cc1
- IC50 (L6): 22200 nM
- IC50 (Plasmodium falciparum): 14.9 nM
- IC50 [1]: 32.4 nM

SMILES: N=C(N)c1ccc(-c2ccc(-c3ccc(C(=N)N)cc3)o2)cc1 [FURAMIDINE]
- IC50 (L6): 16400 nM

SMILES: N=C(N)c1ccc(-c2cc(-c3ccc(C(=N)N)cc3Cl)on2)cc1
- IC50 (L6): 41000 nM
- IC50 (Plasmodium falciparum): 7.9 nM
- IC50 [1]: 15.5 nM

SMILES: N=C(N)c1cccc(-c2cc(-c3ccc(C(=N)N)cc3[N+](=O)[O-])on2)c1
- IC50 (L6): 48000 nM
- IC50 (Plasmodium falciparum): 25.9 nM
- IC50 [1]: 9 nM

SMILES: CC(C)NC(=N)c1ccc(-c2cc(-c3cccc(C(=N)NC(C)C)c3)on2)cc1
- IC50 (L6): > 186000 nM
- IC50 (Plasmodium falciparum): 34.7 nM
- IC50 [1]: 316 nM

SMILES: COc1cc(C(=N)N)ccc1-c1cc(-c2cccc(C(=N)N)c2)on1
- IC50 (L6): 136000 nM
- IC50 (Plasmodium falciparum): 8.9 nM
- IC50 [1]: 5.9 nM

SMILES: N=C(N)c1cccc(-c2cc(-c3ccc(C(=N)N)cc3[N+](=O)[O-])no2)c1
- IC50 (L6): > 206000 nM
- IC50 (Plasmodium falciparum): 30.4 nM
- IC50 [1]: 19.4 nM

SMILES: N=C(N)c1ccc(-c2cc(-c3cccc(C(=N)N)c3)no2)cc1
- IC50 (L6): 24100 nM
- IC50 (Plasmodium falciparum): 57.8 nM
- IC50 [1]: 6.3 nM

SMILES: CC(C)NC(=N)c1cccc(-c2cc(-c3cccc(C(=N)NC(C)C)c3)on2)c1
- IC50 (L6): > 180000 nM
- IC50 (Plasmodium falciparum): 43.1 nM
- IC50 [1]: 4980 nM

SMILES: N=C(N)c1ccc(-c2cc(-c3ccc(C(=N)N)cc3Cl)no2)cc1
- IC50 (L6): 5700 nM
- IC50 (Plasmodium falciparum): 55.5 nM
- IC50 [1]: 23.2 nM

SMILES: C[C@@H]1CC[C@H]2[C@@H](C)C(=O)O[C@@H]3O[C@@]4(C)CC[C@@H]1[C@]32OO4 [ARTEMISININ]
- IC50 (Plasmodium falciparum): 6.7 nM

SMILES: c1cc(-c2cc(-c3ccc(C4=NCCN4)cc3)on2)ccc1C1=NCCN1
- IC50 (L6): 1800 nM
- IC50 (Plasmodium falciparum): 4.1 nM
- IC50 [1]: 87.2 nM

SMILES: CC(C)NC(=N)c1ccc(-c2cc(-c3ccc(C(=N)NC(C)C)cc3)on2)cc1
- IC50 (L6): > 176000 nM
- IC50 (Plasmodium falciparum): 6.6 nM
- IC50 [1]: 196 nM

SMILES: CC(C)NC(=N)c1ccc(-c2cc(-c3cccc(C(=N)NC(C)C)c3)no2)cc1
- IC50 (L6): > 187000 nM
- IC50 (Plasmodium falciparum): 10.6 nM
- IC50 [1]: 488 nM

SMILES: COc1cc(C(=N)N)ccc1-c1cc(-c2cccc(C(=N)N)c2)no1
- IC50 (L6): 177000 nM
- IC50 (Plasmodium falciparum): 3.5 nM
- IC50 [1]: 6.5 nM

SMILES: c1cc(C2=NCCN2)cc(-c2cc(-c3cccc(C4=NCCN4)c3)on2)c1
- IC50 (L6): 26200 nM
- IC50 (Plasmodium falciparum): 227 nM
- IC50 [1]: 18500 nM

SMILES: Nc1nc(N)nc(Nc2ccc([As]3SCC(CO)S3)cc2)n1 (centres undefined) [MELARSOPROL]
- IC50 [1]: 6.4 nM

SMILES: N=C(N)c1cccc(-c2cc(-c3ccc(C(=N)N)cc3Cl)no2)c1
- IC50 (L6): 87400 nM
- IC50 (Plasmodium falciparum): 14.1 nM
- IC50 [1]: 11.6 nM

SMILES: c1cc(C2=NCCN2)cc(-c2cc(-c3ccc(C4=NCCN4)cc3)on2)c1
- IC50 (L6): 65000 nM
- IC50 (Plasmodium falciparum): 51.2 nM
- IC50 [1]: 1550 nM

SMILES: N=C(N)c1ccc(-c2cc(-c3cccc(C(=N)N)c3)on2)cc1
- IC50 (L6): 31200 nM
- IC50 (Plasmodium falciparum): 2.5 nM
- IC50 [1]: 3.5 nM

SMILES: N=C(N)c1cccc(-c2cc(-c3cccc(C(=N)N)c3)on2)c1
- IC50 (L6): 153000 nM
- IC50 (Plasmodium falciparum): 9.2 nM
- IC50 [1]: 29 nM

SMILES: N=C(N)c1ccc(-c2cc(-c3ccc(C(=N)N)cc3)on2)cc1
- IC50 (L6): 2100 nM
- IC50 (Plasmodium falciparum): 22.6 nM
- IC50 [1]: 5.1 nM

SMILES: N=C(N)c1ccc(-c2cc(-c3ccc(C(=N)N)cc3[N+](=O)[O-])on2)cc1
- IC50 (L6): 15800 nM
- IC50 (Plasmodium falciparum): 14.9 nM
- IC50 [1]: 13.9 nM
